Calls of active or inactive are those of the source. The calls are words filed in the database; no cut-off is given here.
Key:
[1] = Antiproliferative activity against human GBM1 cells assessed as reduction in cell viability at 10 uM incubated for 72 hrs by WST-1 method; assay type: functional; conditions: GBM1, 72 h
[2] = Antiproliferative activity against human GBM2 cells assessed as reduction in cell viability at 10 uM incubated for 72 hrs by WST-1 method; assay type: functional; conditions: GBM2, 72 h
[3] = Antiproliferative activity against human GBM1 cells assessed as reduction in cell viability incubated for 72 hrs by WST-1 method; assay type: functional, cell-based; conditions: GBM1, 72 h
[4] = Antiproliferative activity against human GBM2 cells assessed as reduction in cell viability incubated for 72 hrs by WST-1 method; assay type: functional, cell-based; conditions: GBM2, 72 h
[5] = Cytotoxicity against normal human astrocytes assessed as cell viability incubated for 72 hrs by WST-1 method; assay type: cell-based; conditions: Astrocyte
[6] = Selectivity index, ratio of IC50 for normal human astrocytes to IC50 for human GBM1 cells
[7] = Selectivity index, ratio of IC50 for normal human astrocytes to IC50 for human GBM2 cells
[8] = Antiproliferative activity against human GBM3 cells assessed as reduction in cell viability at 10 uM incubated for 72 hrs by WST-1 method; assay type: functional; conditions: GBM3, 72 h
[9] = Antiproliferative activity against human GBM3 cells assessed as reduction in cell viability incubated for 72 hrs by WST-1 method; assay type: functional, cell-based; conditions: GBM3, 72 h
[10] = Selectivity index, ratio of IC50 for normal human astrocytes to IC50 for human GBM3 cells
[11] = tested on: GBM1; assay: Induction of apoptosis in human GBM1 cells assessed as loss of mitochondrial membrane potential at 10 uM after 2 hrs by JC-1 staining based fluorescence microscopy; assay type: functional, cell-based
[12] = molecular target: Translocator protein (Rattus norvegicus) (UniProt P16257); assay: Displacement of [3H]PK11195 from TSPO receptor in Sprague-Dawley rat cerebral cortex membrane at 10 uM by radiometric competitive assay; assay type: tissue-based
[13] = molecular target: Translocator protein (Rattus norvegicus) (UniProt P16257); assay: Displacement of [3H]PK11195 from TSPO receptor in Sprague-Dawley rat cerebral cortex membrane at 1 uM by radiometric competitive assay; assay type: tissue-based
[14] = molecular target: Translocator protein (Rattus norvegicus) (UniProt P16257); assay: Displacement of [3H]PK11195 from TSPO receptor in Sprague-Dawley rat cerebral cortex membrane at 100 nM by radiometric competitive assay; assay type: tissue-based
[15] = molecular target: Translocator protein (Rattus norvegicus) (UniProt P16257); assay: Displacement of [3H]PK11195 from TSPO receptor in Sprague-Dawley rat cerebral cortex membrane at 10 nM by radiometric competitive assay; assay type: tissue-based
[16] = molecular target: Translocator protein (Rattus norvegicus) (UniProt P16257); assay: Displacement of [3H]PK11195 from TSPO receptor in Sprague-Dawley rat cerebral cortex membrane at 1 nM by radiometric competitive assay; assay type: tissue-based
[17] = molecular target: Translocator protein (Rattus norvegicus, UniProt P16257); assay: Displacement of [3H]PK11195 from TSPO receptor in Sprague-Dawley rat cerebral cortex membrane by radiometric competitive assay; assay type: tissue-based

Row | SMILES | inhibition at 10 µM [1] [%] | inhibition at 10 µM [2] [%] | IC50 [3] [µM] | IC50 [4] [µM] | IC50 [5] [µM] | Ratio IC50 [6] | Ratio IC50 [7] | inhibition at 10 µM [8] [%] | IC50 [9] [µM] | Ratio IC50 [10] | Activity [11] | inhibition [12] [%] | inhibition [13] [%] | inhibition [14] [%] | inhibition [15] [%] | inhibition [16] [%] | IC50 [17] [µM]
1 | CC[C@@]1(O)C(=O)OCc2c1cc1n(c2=O)Cc2cc3c(CN(C)C)c(O)ccc3nc2-1 [TOPOTECAN] | 88.7 | 97.8 | 0.46 | 0.13 | 0.16 | 0.5 | 0.5 | 88.7 | 0.38 | 0.5 | – | – | – | – | – | – | –
2 | O=C(Nc1ccc(Cl)c(Cl)c1)Nc1cc2ncncc2cc1OCc1ccccc1Cl | 87.5 | 98.9 | 1.8 | 1.3 | > 10 | >7 | >7 | 104 | 1.2 | >7 | Active | 84 | 57 | 37 | 19 | 1 | 0.447
3 | O=C(Nc1ccc(C(F)(F)F)cc1)Nc1cc2ncncc2cc1OCc1cccc(Cl)c1 | 75.7 | 94.6 | 3.4 | 4.7 | 8.8 | 2 | 2 | 90.1 | 5.1 | 2 | – | – | – | – | – | – | –
4 | O=C(Nc1ccccc1F)Nc1cc2ncncc2cc1OCc1cccc(Cl)c1 | 73 | 82.3 | 4.2 | 4.4 | 8.7 | 1.6 | 1.6 | 58.8 | 7.5 | 1.6 | – | – | – | – | – | – | –
5 | O=C(Nc1ccccc1F)Nc1cc2ncncc2cc1OCc1ccccc1 | 72 | 83.7 | 6.1 | 4.5 | > 10 | >1.8 | >1.8 | 75.5 | 5.9 | >1.8 | – | – | – | – | – | – | –
6 | O=C(Nc1cc2ncncc2cc1OCc1cccc(F)c1)Nc1cccc2ccccc12 | 92.6 | 94.9 | 1.3 | 1.4 | > 10 | >7.7 | >7.7 | 92.9 | 1.2 | >7.7 | Active | 75 | 53 | 34 | 9 | 3 | 0.703
7 | CC/C(=C(\c1ccccc1)c1ccc(OCCN(C)C)cc1)c1ccccc1 [TAMOXIFEN] | 98.4 | 101 | 7.5 | 3.5 | > 10 | >2.1 | >2.1 | 95.7 | 4.7 | >2.1 | – | – | – | – | – | – | –
8 | O=C(Nc1ccccc1F)Nc1cc2ncncc2cc1OCc1cccc(F)c1 | 63 | 74.5 | 8 | 6.4 | > 10 | >1.3 | >1.3 | 61.4 | 8.1 | >1.3 | – | – | – | – | – | – | –
9 | N#CC(C#N)=NNc1cccc(Cl)c1 | – | – | – | – | – | – | – | – | – | – | Active | – | – | – | – | – | –
10 | O=C(Nc1ccc(C(F)(F)F)cc1)Nc1cc2ncncc2cc1OCc1ccccc1 | 92.2 | 95.2 | 5.7 | 8.6 | 9.2 | 1.5 | 1.5 | 99.1 | 3.7 | 1.5 | – | – | – | – | – | – | –
11 | O=C(Nc1ccc(Cl)c(Cl)c1)Nc1cc2ncncc2cc1OCc1ccccc1F | 84.4 | 87.6 | 4.1 | 6 | 3.9 | – | – | 50.2 | > 10 | – | – | – | – | – | – | – | –
12 | O=C(Nc1ccc(Cl)c(Cl)c1)Nc1cc2ncncc2cc1OCc1cccc(F)c1 | 98.6 | 99.1 | 2.1 | 1.5 | 7.4 | 4 | 4 | 104 | 2 | 4 | Active | 86 | 42 | 16 | 8 | 3 | 1.32
13 | O=C(Nc1cccc(Cl)c1)Nc1cc2ncncc2cc1OCc1ccccc1 | 79.1 | 97.3 | 5.7 | 4.1 | 7.4 | 1.4 | 1.4 | 74.8 | 6.4 | 1.4 | – | – | – | – | – | – | –
14 | O=C(Nc1cc2ncncc2cc1OCc1ccccc1Cl)Nc1cccc2ccccc12 | 97.3 | 98.1 | 2.9 | 2.9 | 2.3 | 1 | 1 | 100 | 2.7 | 1 | – | – | – | – | – | – | –
15 | O=C(Nc1cccc(F)c1)Nc1cc2ncncc2cc1OCc1cccc(Cl)c1 | 73.2 | 76.3 | 3.7 | 7.8 | > 10 | >1.5 | >1.5 | 54.5 | 8.3 | >1.5 | – | – | – | – | – | – | –
16 | O=C(Nc1cc2ncncc2cc1OCc1ccc(F)cc1)Nc1cccc2ccccc12 | 99.3 | 99 | 8.1 | 4.5 | 8.5 | 1.2 | 1.2 | 94.4 | 8.3 | 1.2 | – | – | – | – | – | – | –
17 | O=C(Nc1cccc(F)c1)Nc1cc2ncncc2cc1OCc1ccccc1Cl | 97.7 | 102 | 4 | 3.2 | 9.4 | 2.9 | 2.9 | 102 | 2.4 | 2.9 | – | – | – | – | – | – | –
18 | O=C(Nc1cc2ncncc2cc1OCc1ccc(Cl)cc1)Nc1cccc2ccccc12 | 97.1 | 98.5 | 7.9 | 4.5 | > 10 | >1.5 | >1.5 | 98.8 | 7.7 | >1.5 | – | – | – | – | – | – | –
19 | COc1cc([C@@H]2c3cc4c(cc3[C@@H](O[C@@H]3O[C@@H]5CO[C@@H](C)O[C@H]5[C@H](O)[C@H]3O)[C@H]3COC(=O)[C@H]23)OCO4)cc(OC)c1O [ETOPOSIDE] | 53.5 | 88.2 | > 10 | 1.1 | > 10 | – | – | 22.1 | > 10 | – | – | – | – | – | – | – | –
20 | O=C(Nc1ccc(C(F)(F)F)cc1)Nc1cc2ncncc2cc1OCc1cccc(F)c1 | 76.2 | 99.5 | 3.8 | 3.2 | 8.9 | 2 | 2 | 95.4 | 6.3 | 2 | – | – | – | – | – | – | –
21 | CN1C(=O)CN=C(c2ccccc2)c2cc(Cl)ccc21 | – | – | – | – | – | – | – | – | – | – | – | 97 | 85 | 34 | 2 | 0 | –
22 | O=C(Nc1ccccc1F)Nc1cc2ncncc2cc1OCc1ccccc1F | 80.7 | 92.4 | 4.2 | 3.6 | 10 | 2.6 | 2.6 | 94.6 | 3.8 | 2.6 | – | – | – | – | – | – | –
23 | O=C(Nc1cccc(Cl)c1)Nc1cc2ncncc2cc1OCc1cccc(Cl)c1 | 85 | 98.2 | 3.3 | 3.5 | > 10 | >2.9 | >2.9 | 100 | 3.5 | >2.9 | – | – | – | – | – | – | –
24 | CCc1c2c(nc3ccc(OC(=O)N4CCC(N5CCCCC5)CC4)cc13)-c1cc3c(c(=O)n1C2)COC(=O)[C@]3(O)CC | 34.1 | 91.8 | > 10 | 2.4 | > 10 | – | – | 54.1 | 5 | – | – | – | – | – | – | – | –
